How the values were obtained:
Assay type in all cases: in vivo
[1] = tested on: Italian ryegrass (Lolium mutiflorum); test: Test C preemergence, visual plant response rating
In short: (§1)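 Visual injury on a 0 (no effect) to 100 (complete control) scale versus untreated controls, scored approximately 10 d after treatment under greenhouse conditions. Treatments used surfactant-containing non-phytotoxic solvent formulations, sprayed onto loam–sand soil preemergence or onto one- to two-leaf plants 2–10 cm tall postemergence.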

[2] = tested on: barnyardgrass (Echinochloa crus-galli); test: Test C preemergence, visual plant response rating
In short: as §1

[3] = tested on: foxtail, giant (giant foxtail, Setaria faberi); test: Test C preemergence, visual plant response rating
In short: as §1

kochia (Bassia scoparia) [4] = test: Test C preemergence, visual plant response rating
In short: as §1

[5] = tested on: pigweed (Amaranthus retroflexus); test: Test C preemergence, visual plant response rating
In short: as §1

[6] = tested on: ragweed (common ragweed, Ambrosia artemisiifolia); test: Test C preemergence, visual plant response rating
In short: as §1

[7] = tested on: Italian ryegrass (Lolium mutiflorum); test: Test C postemergence, visual plant response rating
In short: as §1

[8] = tested on: barnyardgrass (Echinochloa crus-galli); test: Test C postemergence, visual plant response rating
In short: as §1

[9] = tested on: blackgrass (Alopecurus myosuroides); test: Test C postemergence, visual plant response rating
In short: as §1

corn (Zea mays) = test: Test C postemergence, visual plant response rating
In short: as §1

[10] = tested on: foxtail, giant (giant foxtail, Setaria faberi); test: Test C postemergence, visual plant response rating
In short: as §1

[11] = tested on: galium (catchweed bedstraw, Galium aparine); test: Test C postemergence, visual plant response rating
In short: as §1

kochia (Bassia scoparia) [12] = test: Test C postemergence, visual plant response rating
In short: as §1

[13] = tested on: pigweed (Amaranthus retroflexus); test: Test C postemergence, visual plant response rating
In short: as §1

[14] = tested on: ragweed (common ragweed, Ambrosia artemisiifolia); test: Test C postemergence, visual plant response rating
In short: as §1

[15] = tested on: wheat (Triticum aestivum); test: Test C postemergence, visual plant response rating
In short: as §1

[16] = tested on: barnyardgrass (Echinochloa crus-galli); test: Test D flooded paddy test, visual plant response rating; conditions: 250 g ai/ha, scale 0 to 100 (0 no effect, 100 complete control), 13 to 15 d
In short: (§2)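 Rating is visual, on a 0 (no effect) to 100 (complete control) scale versus controls, taken 13 to 15 d after treatment in a greenhouse. Treatment went into paddy water kept 3 cm above the soil surface, with plants at the 2-leaf stage.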

[17] = tested on: duck salad (Heteranthera limosa); test: as above; conditions: 250 g ai/ha, scale 0 to 100 (0 no effect, 100 complete control), 13 to 15 d
In short: as §2

rice (Oryza sativa) = test: as above; conditions: 250 g ai/ha, scale 0 to 100 (0 no effect, 100 complete control), 13 to 15 d
In short: as §2

[18] = tested on: sedge umbrella (small-flower umbrella sedge, Cyperus difformis); test: as above; conditions: 250 g ai/ha, scale 0 to 100 (0 no effect, 100 complete control), 13 to 15 d
In short: as §2

[19] = Test C, 31 g ai/ha, 0 is no effect, 100 is complete control
[20] = Test C, postemergence, 125 g ai/ha
[21] = Test C, 125 g ai/ha, 0 is no effect, 100 is complete control
[22] = Test C, postemergence, 31 g ai/ha

C#CCO/N=C(\c1ccc(Cl)c(Cl)c1)c1c(O)c(C)nn(C)c1=O [Compound 166]
50: Barnyardgrass plant response rating (0 to 100 scale) ([2]; 125 g ai/ha) | Pigweed plant response rating (0 to 100 scale) ([5]; 125 g ai/ha) | Galium plant response rating (0 to 100 scale) ([11]; Postemergence, 31 g ai/ha) | Pigweed plant response rating (0 to 100 scale) [13, 20]
40: Kochia plant response rating (0 to 100 scale) (kochia (Bassia scoparia) [12]; [20])
0: Barnyardgrass plant response rating (0 to 100 scale) [2, 19] | Foxtail, Giant plant response rating (0 to 100 scale) [3, 19] | Kochia plant response rating (0 to 100 scale) (kochia (Bassia scoparia) [4]; [19]) | Pigweed plant response rating (0 to 100 scale) [5, 19] | Ragweed plant response rating (0 to 100 scale) [6, 19] | Ryegrass, Italian plant response rating (0 to 100 scale) ([7]; Postemergence, 31 g ai/ha) | Blackgrass plant response rating (0 to 100 scale) ([9]; Postemergence, 31 g ai/ha) | Corn plant response rating (0 to 100 scale) (corn (Zea mays); Postemergence, 31 g ai/ha) | Wheat plant response rating (0 to 100 scale) ([15]; Postemergence, 31 g ai/ha) | Plant response rating, Barnyardgrass (Flood) [16] | Plant response rating, Ducksalad (Flood) [17] | Plant response rating, Rice (Flood) (rice (Oryza sativa)) | Plant response rating, Sedge, Umbrella (Flood) [18]
60: Ryegrass, Italian plant response rating (0 to 100 scale) ([1]; 125 g ai/ha) | Foxtail, Giant plant response rating (0 to 100 scale) ([3]; 125 g ai/ha) | Wheat plant response rating (0 to 100 scale) [15, 20]
10: Ryegrass, Italian plant response rating (0 to 100 scale) [1, 19] | Ragweed plant response rating (0 to 100 scale) ([6]; 125 g ai/ha) | Foxtail, Giant plant response rating (0 to 100 scale) ([10]; Postemergence, 31 g ai/ha)
80: Kochia plant response rating (0 to 100 scale) (kochia (Bassia scoparia) [4]; 125 g ai/ha) | Ryegrass, Italian plant response rating (0 to 100 scale) [7, 20] | Galium plant response rating (0 to 100 scale) [11, 20]
20: Barnyardgrass plant response rating (0 to 100 scale) ([8]; Postemergence, 31 g ai/ha) | Blackgrass plant response rating (0 to 100 scale) [9, 20] | Corn plant response rating (0 to 100 scale) (corn (Zea mays); [20]) | Ragweed plant response rating (0 to 100 scale) ([14]; Postemergence, 31 g ai/ha)
30: Barnyardgrass plant response rating (0 to 100 scale) [8, 20] | Foxtail, Giant plant response rating (0 to 100 scale) [10, 20] | Kochia plant response rating (0 to 100 scale) (kochia (Bassia scoparia) [12]; Postemergence, 31 g ai/ha) | Pigweed plant response rating (0 to 100 scale) ([13]; Postemergence, 31 g ai/ha) | Ragweed plant response rating (0 to 100 scale) [14, 20]

CON=C(c1cc(F)cc(F)c1F)c1c(O)c(C)nn(C)c1=O [Compound 227]
10: Kochia plant response rating (0 to 100 scale) (kochia (Bassia scoparia) [4]; [21]) | Pigweed plant response rating (0 to 100 scale) [5, 21]
40: Ryegrass, Italian plant response rating (0 to 100 scale) [7, 20]
20: Barnyardgrass plant response rating (0 to 100 scale) [2, 21] | Ragweed plant response rating (0 to 100 scale) [6, 19] | Ryegrass, Italian plant response rating (0 to 100 scale) ([7]; Postemergence, 31 g ai/ha) | Barnyardgrass plant response rating (0 to 100 scale) [8, 20] | Ragweed plant response rating (0 to 100 scale) ([14]; Postemergence, 31 g ai/ha)
70: Kochia plant response rating (0 to 100 scale) (kochia (Bassia scoparia) [12]; [20])
60: Ryegrass, Italian plant response rating (0 to 100 scale) [1, 21] | Galium plant response rating (0 to 100 scale) ([11]; Postemergence, 31 g ai/ha)
0: Barnyardgrass plant response rating (0 to 100 scale) [2, 19] | Foxtail, Giant plant response rating (0 to 100 scale) [3, 19] | Kochia plant response rating (0 to 100 scale) (kochia (Bassia scoparia) [4]; [19]) | Pigweed plant response rating (0 to 100 scale) [5, 19] | Barnyardgrass plant response rating (0 to 100 scale) ([8]; Postemergence, 31 g ai/ha) | Blackgrass plant response rating (0 to 100 scale) ([9]; Postemergence, 31 g ai/ha) | Blackgrass plant response rating (0 to 100 scale) [9, 20] | Corn plant response rating (0 to 100 scale) (corn (Zea mays); Postemergence, 31 g ai/ha) | Corn plant response rating (0 to 100 scale) (corn (Zea mays); [20]) | Foxtail, Giant plant response rating (0 to 100 scale) ([10]; Postemergence, 31 g ai/ha) | Foxtail, Giant plant response rating (0 to 100 scale) [10, 20] | Wheat plant response rating (0 to 100 scale) ([15]; Postemergence, 31 g ai/ha) | Wheat plant response rating (0 to 100 scale) [15, 20] | Plant response rating, Barnyardgrass (Flood) [16] | Plant response rating, Ducksalad (Flood) [17] | Plant response rating, Rice (Flood) (rice (Oryza sativa)) | Plant response rating, Sedge, Umbrella (Flood) [18]
80: Ragweed plant response rating (0 to 100 scale) [6, 21] | Galium plant response rating (0 to 100 scale) [11, 20]
50: Pigweed plant response rating (0 to 100 scale) [13, 20] | Ragweed plant response rating (0 to 100 scale) [14, 20]
30: Ryegrass, Italian plant response rating (0 to 100 scale) [1, 19] | Foxtail, Giant plant response rating (0 to 100 scale) [3, 21] | Kochia plant response rating (0 to 100 scale) (kochia (Bassia scoparia) [12]; Postemergence, 31 g ai/ha) | Pigweed plant response rating (0 to 100 scale) ([13]; Postemergence, 31 g ai/ha)

CON=C(c1cc(Cl)cc(Cl)c1F)c1c(O)c(C)nn(C)c1=O [Compound 153]
90: Barnyardgrass plant response rating (0 to 100 scale) ([2]; 125 g ai/ha) | Foxtail, Giant plant response rating (0 to 100 scale) [3, 19] | Kochia plant response rating (0 to 100 scale) (kochia (Bassia scoparia) [4]; 125 g ai/ha) | Ragweed plant response rating (0 to 100 scale) [6, 19] | Ryegrass, Italian plant response rating (0 to 100 scale) ([7]; Postemergence, 31 g ai/ha) | Barnyardgrass plant response rating (0 to 100 scale) [8, 20] | Foxtail, Giant plant response rating (0 to 100 scale) [10, 22] | Kochia plant response rating (0 to 100 scale) (kochia (Bassia scoparia) [12]; [22]) | Ragweed plant response rating (0 to 100 scale) ([14]; Postemergence, 31 g ai/ha)
70: Plant response rating, Sedge, Umbrella (Flood) [18]
80: Barnyardgrass plant response rating (0 to 100 scale) [2, 19] | Barnyardgrass plant response rating (0 to 100 scale) [8, 22] | Blackgrass plant response rating (0 to 100 scale) [9, 20] | Wheat plant response rating (0 to 100 scale) [15, 20] | Plant response rating, Barnyardgrass (Flood) [16]
40: Wheat plant response rating (0 to 100 scale) ([15]; Postemergence, 31 g ai/ha) | Plant response rating, Rice (Flood) (rice (Oryza sativa))
55: Plant response rating, Ducksalad (Flood) [17]
20: Corn plant response rating (0 to 100 scale) (corn (Zea mays); [22])
50: Blackgrass plant response rating (0 to 100 scale) [9, 22] | Corn plant response rating (0 to 100 scale) (corn (Zea mays); [20])
60: Kochia plant response rating (0 to 100 scale) (kochia (Bassia scoparia) [4]; [19])
100: Ryegrass, Italian plant response rating (0 to 100 scale) ([1]; 125 g ai/ha) | Ryegrass, Italian plant response rating (0 to 100 scale) [1, 19] | Foxtail, Giant plant response rating (0 to 100 scale) ([3]; 125 g ai/ha) | Pigweed plant response rating (0 to 100 scale) ([5]; 125 g ai/ha) | Pigweed plant response rating (0 to 100 scale) [5, 19] | Ragweed plant response rating (0 to 100 scale) ([6]; 125 g ai/ha) | Ryegrass, Italian plant response rating (0 to 100 scale) [7, 20] | Foxtail, Giant plant response rating (0 to 100 scale) [10, 20] | Galium plant response rating (0 to 100 scale) [11, 22] | Galium plant response rating (0 to 100 scale) [11, 20] | Kochia plant response rating (0 to 100 scale) (kochia (Bassia scoparia) [12]; [20]) | Pigweed plant response rating (0 to 100 scale) ([13]; Postemergence, 31 g ai/ha) | Pigweed plant response rating (0 to 100 scale) [13, 20] | Ragweed plant response rating (0 to 100 scale) [14, 20]
